How the values were obtained:
[1] = Pharmacokinetic studies of 4-CNAB after oral administration in rats; assay type: in vivo
Genotoxicity studies = settings: four genotoxicity studies
[2] = test system: primary molecular targets; assay: Receptor binding screening assays
[3] = Pharmacokinetic studies of 4-CNAB after oral administration in monkeys; assay type: in vivo
[4] = Pharmacokinetic studies of 4-CNAB after oral administration in mice; assay type: in vivo
[5] = 14-day oral repeated dose toxicity study in monkeys; settings: rhesus monkey, in vivo, 14 days
Description: In toxicology studies, 4-CNAB doses from 400 mg to 2000 mg were evaluated.

[6] = Open-label single-dose crossover study of oral Insulin/4-CNAB in type 2 diabetic subjects (fasting / standard meal); assay type: in vivo, human
From the text: In the first part of the study, twenty-four human diabetic subjects (patients) of age 35-70 years, with elevated fasting blood glucose levels but in otherwise good general health on the basis of a medical history, physical examination and clinical laboratory studies, participated in the study and were studied in the overnight-fasted state on two occasions, separated by an interval of at least 7 days.

O=C(O)CCCNC(=O)c1ccc(Cl)cc1O [4-CNAB, monosodium N-(4-chlorosalicyloyl)-4-aminobutyrate]
4-CNAB absorption following oral administration [1]: absorbed rapidly
genotoxicity findings (Genotoxicity studies): no positive findings
activity in primary molecular targets in receptor binding screening assays [2]: did not demonstrate potential activity
4-CNAB absorption following oral administration [3]: absorbed rapidly
4-CNAB absorption following oral administration [4]: absorbed rapidly
highest proposed dose of 2000 mg 4-CNAB in man (<30 mg/kg) lower than the NOAEL in monkeys [5]: 12-16 fold
tolerability of 4-CNAB [6]: well tolerated
time of 4-CNAB concentration peak post administration ([6]; oral capsules): about 30 minutes

— patent US7384914B2 (Emisphere Technologies, Inc., priority 2003, dated 2008)
